Measured values as given in US9364480B2, “Pharmaceutical composition for preventing or treating cancer, containing enoblock as active ingredient” (GWANGJU INSTITUTE OF SCIENCE AND TECHNOLOGY, priority 2012, dated 2016).
Entries after “also recorded” stand apart in the source; their conditions may differ.

Assays:
[1] = system: monocytes; experiment: Monocyte differentiation into macrophages (attached cell count, PMA); assay type: cell-based; conditions: PMA treated; 10 μM
Method: (§1) FIG. 14. […] Treatment with 3 mM H2O2 for 48 h was used as a positive control.

[2] = system: macrophages; experiment: Macrophage cytotoxicity (MTT assay); assay type: cell-based
Method: as §1

[3] = system: HCT116 cancer cells; experiment: Sensitivity to antitubulin chemotherapeutics taxol and vincristine; assay type: cell-based; conditions: 10 nM taxol or 10 nM vincristine with or without 10 μM ENOblock
Method: (§2) FIG. 7. […] (b) Microscopic images of crystal violet stained HCT116 cells invaded onto the transwell inserts (scale bar=100 μm). […] (d) Microscopic images of crystal violet stained HCT116 cells migrated onto the transwell inserts (scale bar=100 μm). […] Cells were treated with 10 nM taxol and 10 nM vincristine, with or without 10 μM ENOblock. Error=SD; *=P<0.05 between the groups indicated on the graph. […] For the AKT Western blot, cells were treated with ENOblock for 24 h; for the Bcl-Xl Western blot, cells were treated with ENOblock for 48 h.

[4] = system: zebrafish larvae; experiment: Toxicological analysis using the zebrafish larvae system; assay type: in vivo, zebrafish (Danio rerio); conditions: for microscopic assessment of larvae morphology: 72 days post fertilization (dfp) zebrafish larvae
Method: (§3) FIG. 9. Toxicological study of ENOblock and in vivo analysis of anticancer activity. (A) Toxicological analysis of ENOblock treatment using the zebrafish larvae system. […] (B) Microscopic assessment of […] post fertilization (dfp) zebrafish larvae exposed to increasing doses of ENOblock. […] Error=SD; *=P<0.05 compared to the DMSO treated group. P value: 20 μM ENOblock=0.0121; 40 μM ENOblock=0.0019. […] DMSO treatment served as a control. Three representative embryos are shown from each experimental group, and distributed cancer cell foci are designated with blue arrows. […] Error=SD; *=P<0.05 compared to the DMSO-treated group.
The zebrafish (Danio rerio) cancer cell xenograft model is gaining increasing research prominence as a validated, convenient tool for testing candidate cancer drugs in vivo.^10,11 In addition, zebrafish is a relevant vertebrate platform for predicting toxicological effects in mammals.^12 We observed that 10 μM ENOblock treatment of developing zebrafish larvae was nontoxic (FIG. 9a-9c).

[5] = system: glucose 6-phosphatase (G6 Pase) expression in hepatocytes; experiment: G6 Pase expression in hepatocytes; assay type: cell-based; conditions: 10 μM, 24 h
Source text: FIG. 10. […] Error=SD; *=P<0.05 compared to the no drug (DMSO-treated) group. […] Error=SD; *=P<0.05 for reduced PEPCK expression compared to the no drug (DMSO-treated) group.

[6] = target: purified human enolase (Homo sapiens, UniProt P06733); experiment: Affinity matrix binding of purified enolase (Western blot)
Method: FIG. 4. […] (a) Affinity chromatography study for ENOblock in HCT116 cancer cells. […] (b) Sequence identification for the enolase monomer subunit. […] Mascot scores above 100 were deemed to be significant. […] Twenty micrograms of cell lysate from YD-10B oral cancer cells or Huh7 hepatocytes were used as positive controls. […] As a positive control, ENOblock affinity matrix was incubated with 200 μg of HCT 116 cell lysate; 50 μg cell lysate from HCT116 cancer cells was used as a positive control for the enolase antibody.
Affinity chromatography was used to identify the cellular target for AP-III-a4. Target identification strategies for the triazine library used in this study are relatively straightforward, because the molecules contain a built-in linker moiety. This allows conjugation to an affinity matrix with reduced risk of compromising biological activity.

[7] = system: HCT116 cancer cells; experiment: Cancer cell migration (transwell inserts, crystal violet); assay type: cell-based; conditions: HCT116, normoxia
Method: as §2

[8] = system: HCT116 cancer cells; experiment: Cancer cell invasion (transwell inserts, crystal violet); assay type: cell-based; conditions: HCT116, normoxia
Method: as §2

[9] = system: Bcl-Xl expression in HCT116 cancer cells; experiment: Bcl-Xl Western blot; assay type: cell-based; conditions: 48 h treatment
Method: as §2

[10] = system: HCT116-xenotransplanted zebrafish; experiment: Zebrafish tumor cell xenograft model; assay type: in vivo, zebrafish (Danio rerio)
Source text: as §3, with “group.” for “group. P value: 20 μM ENOblock=0.0121; 40 μM ENOblock=0.0019.”
Zebrafish embryos were obtained using standard mating conditions^53 and staged for cell xenoplantation at 48 h post fertilization. After staining of cancer cells (described below), embryos were de-chorionized using micro-forceps and anesthetized with 0.0016% tricaine and positioned on their right side on a wet 1.0% agarose pad. Tumor cells were detached from culture dishes using 0.05% trypsin-EDTA and washed twice with PBS at room temperature. Cells were stained with 2 μg/ml DiI diluted in PBS and washed four times: once with FBS, twice with PBS and then once with 10% FBS diluted in PBS. Cells were kept on ice before injection. Cancer cells were counted by microscopy, suspended in 10% FBS and 100 cells were injected into the center of the yolk sac using an injector equipped with borosilicate glass capillaries (PV820 pneumatic picopump, World Precision Instruments). Injected embryos were transferred to a 96-well plate (one embryo/well) containing drug of interest diluted in […] E3 media (without methylene blue) and maintained at the pre-selected incubation temperature.

purified human enolase, sequence (P06733 whole entry): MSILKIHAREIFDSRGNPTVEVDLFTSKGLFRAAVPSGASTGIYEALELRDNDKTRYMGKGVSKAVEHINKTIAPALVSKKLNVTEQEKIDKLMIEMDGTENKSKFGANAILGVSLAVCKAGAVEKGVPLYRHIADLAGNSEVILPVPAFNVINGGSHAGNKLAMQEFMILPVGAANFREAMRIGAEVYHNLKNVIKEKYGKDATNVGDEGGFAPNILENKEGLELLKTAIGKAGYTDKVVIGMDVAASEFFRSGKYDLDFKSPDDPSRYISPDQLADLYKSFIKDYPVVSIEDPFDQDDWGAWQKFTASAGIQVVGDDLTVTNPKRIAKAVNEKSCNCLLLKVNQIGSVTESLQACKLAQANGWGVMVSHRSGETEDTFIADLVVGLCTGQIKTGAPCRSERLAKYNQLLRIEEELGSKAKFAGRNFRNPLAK

SMILES: NCCOCCOCCNC(=O)Cc1ccc(Nc2nc(NCc3ccc(F)cc3)nc(NCC3CCCCC3)n2)cc1 [ENOblock]
- monocyte differentiation into macrophages (number of attached cells) [1]: inhibited differentiation into macrophages
- cytotoxicity to macrophages (MTT absorbance 570 nm) [2]: not due to cytotoxicity
- sensitivity to taxol and vincristine (cytotoxicity) [3]: increased sensitivity to the antitubulin chemotherapeutics taxol and vincristine
- overall zebrafish larvae viability ([4]; 10 μM): did not affect viability
- overall zebrafish larvae viability ([4]; 20 μM): reduced overall zebrafish larvae viability
- overall zebrafish larvae viability ([4]; 40 μM): reduced overall zebrafish larvae viability
- microscopic assessment of larvae morphology ([4]; 20 μM): produced an abnormally large swim bladder
- microscopic assessment of larvae morphology ([4]; 40 μM): produced multiple abnormalities in the larvae
- toxicity / tolerability (developmental parameters) ([4]; zebrafish larvae, 10 μM): could be tolerated by the larvae; also recorded: nontoxic
- ability to swim ([4]; zebrafish larvae, 20 μM): inhibited the ability to swim
- glucose 6-phosphatase (G6 Pase) expression [5]: did not affect expression of the enzymes
- binding of purified enolase to compound affinity matrix [6]: purified human enolase binds to the ENOblock affinity matrix; also recorded: could bind to purified human enolase
- competition by free compound for purified enolase binding to ENOblock affinity matrix [6]: inhibited purified enolase binding to the ENOblock affinity matrix
- cancer cell migration [7]: inhibited cell migration dose-dependently
- inhibition of cell migration compared with LY294002 [7]: more effective than LY294002 at inhibiting cell migration
- cancer cell invasion ([8]; 0.625-2.5 μM): inhibited invasion dose-dependently
- treatment concentration at which cancer cell invasion is significantly inhibited ([8]; P value=0.0481): 0.625 µM
- Bcl-Xl expression [9]: decreased the expression of AKT and Bcl-Xl
- number of embryos showing cancer cell migration and metastasis (dissemination) from the yolk sac injection site ([10]; 10 μM for 96 h, DMSO control): reduced the number of embryos showing migration and metastasis; also recorded: reduced cancer cell dissemination
- quantification of xenotransplanted cancer cell microfoci ([10]; 10 μM for 96 h, vs DMSO-treated group): significantly reduced cancer cell migration and metastasis
- viability of xenotransplanted cancer cells ([10]; normoxia): without noticeably affecting cancer cell viability
